# Measurements as given in PubChem BioAssay (NCI).
#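 Grown in 96-well plates, cells were treated for 48 hours with each compound at five concentrations. Insufficient inhibition: endpoint recorded as highest concentration tested. Here, GI50 denotes the concentration required for 50% inhibition of growth. Definition used: TGI = concentration required for complete inhibition of growth.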
# Legend:
# Assay in all cases: growth of human tumour cells (NCI), 48 h
# 786-0 renal = system: 786-0 renal
# A498 renal = system: A498 renal
# A549 NSCLC = system: A549 NSCLC
# ACHN renal = system: ACHN renal
# BT-549 breast = system: BT-549 breast
# CAKI-1 renal = system: CAKI-1 renal
# CCRF-CEM leukemia = system: CCRF-CEM leukemia
# COLO 205 colon = system: COLO 205 colon
# DU-145 prostate = system: DU-145 prostate
# EKVX NSCLC = system: EKVX NSCLC
# HCC-2998 colon = system: HCC-2998 colon
# HCT-116 colon = system: HCT-116 colon
# HCT-15 colon = system: HCT-15 colon
# HL-60(TB) leukemia = system: HL-60(TB) leukemia
# HOP-62 NSCLC = system: HOP-62 NSCLC
# HOP-92 NSCLC = system: HOP-92 NSCLC
# HS 578T breast = system: HS 578T breast
# HT29 colon = system: HT29 colon
# IGROV1 ovarian = system: IGROV1 ovarian
# K-562 leukemia = system: K-562 leukemia
# KM12 colon = system: KM12 colon
# LOX IMVI melanoma = system: LOX IMVI melanoma
# M14 melanoma = system: M14 melanoma
# MALME-3M melanoma = system: MALME-3M melanoma
# MCF7 breast = system: MCF7 breast
# MDA-MB-231 breast = system: MDA-MB-231 breast
# MDA-MB-435 = system: MDA-MB-435
# MOLT-4 leukemia = system: MOLT-4 leukemia
# NCI-H226 lung = system: NCI-H226 lung
# NCI-H23 lung = system: NCI-H23 lung
# NCI-H460 lung = system: NCI-H460 lung
# NCI-H522 lung = system: NCI-H522 lung
# NCI/ADR-RES ovarian = system: NCI/ADR-RES ovarian
# OVCAR-3 ovarian = system: OVCAR-3 ovarian
# OVCAR-4 ovarian = system: OVCAR-4 ovarian
# OVCAR-8 ovarian = system: OVCAR-8 ovarian
# PC-3 prostate = system: PC-3 prostate
# RPMI-8226 leukemia = system: RPMI-8226 leukemia
# RXF 393 renal = system: RXF 393 renal
# SF-268 CNS = system: SF-268 CNS
# SF-295 CNS = system: SF-295 CNS
# SF-539 CNS = system: SF-539 CNS
# SK-MEL-2 melanoma = system: SK-MEL-2 melanoma
# SK-MEL-28 melanoma = system: SK-MEL-28 melanoma
# SK-MEL-5 melanoma = system: SK-MEL-5 melanoma
# SK-OV-3 ovarian = system: SK-OV-3 ovarian
# SN12C renal = system: SN12C renal
# SNB-19 CNS = system: SNB-19 CNS
# SNB-75 CNS = system: SNB-75 CNS
# SR leukemia = system: SR leukemia
# SW-620 colon = system: SW-620 colon
# T-47D breast = system: T-47D breast
# TK-10 renal = system: TK-10 renal
# U251 CNS = system: U251 CNS
# UACC-257 melanoma = system: UACC-257 melanoma
# UACC-62 melanoma = system: UACC-62 melanoma
# UO-31 renal = system: UO-31 renal
compound,measurement,setting,value
O=C1NCCS(=O)(=O)/C1=C\C=C\c1cccc(C(F)(F)F)c1,GI50,786-0 renal,2.64 µM
same,TGI,786-0 renal,7.67 µM
same,GI50,A498 renal,2.51 µM
same,TGI,A498 renal,5.31 µM
same,GI50,A549 NSCLC,2.98 µM
same,TGI,A549 NSCLC,11.6 µM
same,GI50,ACHN renal,1.99 µM
same,TGI,ACHN renal,4.52 µM
same,GI50,BT-549 breast,2.4 µM
same,TGI,BT-549 breast,8.54 µM
same,GI50,CAKI-1 renal,2.22 µM
same,TGI,CAKI-1 renal,10.2 µM
same,GI50,CCRF-CEM leukemia,2.13 µM
same,TGI,CCRF-CEM leukemia,10.7 µM
same,GI50,COLO 205 colon,2.31 µM
same,TGI,COLO 205 colon,5.2 µM
same,GI50,DU-145 prostate,2.96 µM
same,TGI,DU-145 prostate,13.6 µM
same,GI50,EKVX NSCLC,4.31 µM
same,TGI,EKVX NSCLC,16.5 µM
same,GI50,HCC-2998 colon,1.93 µM
same,TGI,HCC-2998 colon,3.72 µM
same,GI50,HCT-116 colon,1.41 µM
same,TGI,HCT-116 colon,3.72 µM
same,GI50,HCT-15 colon,1.56 µM
same,TGI,HCT-15 colon,5.29 µM
same,GI50,HL-60(TB) leukemia,2.4 µM
same,TGI,HL-60(TB) leukemia,7.26 µM
same,GI50,HOP-62 NSCLC,3.72 µM
same,TGI,HOP-62 NSCLC,12.7 µM
same,GI50,HOP-92 NSCLC,5.09 µM
same,TGI,HOP-92 NSCLC,16.4 µM
same,GI50,HS 578T breast,6.81 µM
same,TGI,HS 578T breast,30.7 µM
same,GI50,HT29 colon,2.3 µM
same,TGI,HT29 colon,5.38 µM
same,GI50,IGROV1 ovarian,2.61 µM
same,TGI,IGROV1 ovarian,11.8 µM
same,GI50,K-562 leukemia,2.48 µM
same,TGI,K-562 leukemia,25.7 µM
same,GI50,KM12 colon,2.36 µM
same,TGI,KM12 colon,6.67 µM
same,GI50,LOX IMVI melanoma,1.23 µM
same,TGI,LOX IMVI melanoma,2.61 µM
same,GI50,M14 melanoma,1.89 µM
same,TGI,M14 melanoma,7.24 µM
same,GI50,MALME-3M melanoma,4.02 µM
same,TGI,MALME-3M melanoma,17.2 µM
same,GI50,MCF7 breast,0.188 µM
same,TGI,MCF7 breast,11 µM
same,GI50,MDA-MB-231 breast,4.21 µM
same,TGI,MDA-MB-231 breast,15.9 µM
same,GI50,MDA-MB-435,1.81 µM
same,TGI,MDA-MB-435,6.47 µM
same,GI50,MOLT-4 leukemia,2.05 µM
same,TGI,MOLT-4 leukemia,9.54 µM
same,GI50,NCI-H226 lung,2.75 µM
same,TGI,NCI-H226 lung,7.65 µM
same,GI50,NCI-H23 lung,1.94 µM
same,TGI,NCI-H23 lung,8.02 µM
same,GI50,NCI-H460 lung,2.73 µM
same,TGI,NCI-H460 lung,7.68 µM
same,GI50,NCI-H522 lung,1.43 µM
same,TGI,NCI-H522 lung,3.19 µM
same,GI50,NCI/ADR-RES ovarian,2.81 µM
same,TGI,NCI/ADR-RES ovarian,14.2 µM
same,GI50,OVCAR-3 ovarian,2.85 µM
same,TGI,OVCAR-3 ovarian,11.4 µM
same,GI50,OVCAR-4 ovarian,4.84 µM
same,TGI,OVCAR-4 ovarian,19.2 µM
same,GI50,OVCAR-8 ovarian,3.46 µM
same,TGI,OVCAR-8 ovarian,16.8 µM
same,GI50,PC-3 prostate,2.79 µM
same,TGI,PC-3 prostate,11.4 µM
same,GI50,RPMI-8226 leukemia,2.19 µM
same,TGI,RPMI-8226 leukemia,8.31 µM
same,GI50,RXF 393 renal,2.52 µM
same,TGI,RXF 393 renal,5.37 µM
same,GI50,SF-268 CNS,3.28 µM
same,TGI,SF-268 CNS,15 µM
same,GI50,SF-295 CNS,3.71 µM
same,TGI,SF-295 CNS,15 µM
same,GI50,SF-539 CNS,2.83 µM
same,TGI,SF-539 CNS,10.1 µM
same,GI50,SK-MEL-2 melanoma,2.62 µM
same,TGI,SK-MEL-2 melanoma,9.77 µM
same,GI50,SK-MEL-28 melanoma,2.92 µM
same,TGI,SK-MEL-28 melanoma,11.3 µM
same,GI50,SK-MEL-5 melanoma,1.71 µM
same,TGI,SK-MEL-5 melanoma,3.36 µM
same,GI50,SK-OV-3 ovarian,5.83 µM
same,TGI,SK-OV-3 ovarian,18.3 µM
same,GI50,SN12C renal,3.08 µM
same,TGI,SN12C renal,12 µM
same,GI50,SNB-19 CNS,2.62 µM
same,TGI,SNB-19 CNS,10.7 µM
same,GI50,SNB-75 CNS,4.36 µM
same,TGI,SNB-75 CNS,20.1 µM
same,GI50,SR leukemia,0.539 µM
same,TGI,SR leukemia,> 100 µM
same,GI50,SW-620 colon,2.65 µM
same,TGI,SW-620 colon,7.56 µM
same,GI50,T-47D breast,3.51 µM
same,TGI,T-47D breast,17.3 µM
same,GI50,TK-10 renal,3.95 µM
same,TGI,TK-10 renal,13 µM
same,GI50,U251 CNS,1.67 µM
same,TGI,U251 CNS,3.86 µM
same,GI50,UACC-257 melanoma,1.83 µM
same,TGI,UACC-257 melanoma,9.22 µM
same,GI50,UACC-62 melanoma,1.46 µM
same,TGI,UACC-62 melanoma,3.89 µM
same,GI50,UO-31 renal,1.76 µM
same,TGI,UO-31 renal,3.79 µM
